According to patent publication US20040019066A1, “Methionine salvage pathway in bacillus” (priority 2002, published 2004):
Entries after “also recorded” stand apart in the source; their conditions may differ.

System: B. subtilis 168 and mtn region mutants
Assay: Growth on MTR as sole sulfur source (ED1 minimal medium plates)
Assay type: cell-based, Bacillus subtilis
Procedure: Panel A: ED1 minimal mediums plate with 1 mM IPTG containing 0.2 mM MTR as sole sulfur source WT, metI (BSIP 1143), mtnS (BSHP7010), mtnK (BFS1850), mtnU (BFS1851), mtnV (BSHP7020), mtnW (BSHP7014), mtnX (BFS1852), mtnY (BSHP7016) and mtnZ (BFS 1853) were inoculated for over-night growth at 37° C. No growth of mtnS, mtnK, mtnW and mtnY is represented by an example of absence of growth around a disc with MTR of mtnY mutant in panel B. Normal growth of […] and mtnX is represented by an example of normal growth around a disc with MTR of mtnV mutant in panel C.
Using the collection of mutants constructed during the Bacillus subtilis functional analysis, program (http://locus.jouy.inra.fr/cgi-bin/genmic/madbase/progs/madbase.oper] and http://bacillus.genome.adjp, [9]) and constructing mutants which were not available in the collection, we tested all genes in the region for their phenotype of growth on MTR as the sole sulfur source.
Bacterial strains and plasmids, and growth media: E. coli and B. subtilis strains as well as plasmids used in this work are listed in Table 3. E. coli TG1 and XL1-Blue were used for cloning experiments (TG1 for single cross-over recombination and XL1-Blue for double cross-over recombination). Despite the fact that there are no public regulations yet in this domain in China, all experiments were performed in accordance with the European regulation requirements concerning the contained use of Genetically Modified Organisms of Group-I (French agreement N^o 2735). E. coli and B. subtilis were grown in Luria-Bertani (LB) medium and in ED minimal medium: K2HPO4, 8 mM; KH2PO4, 4,4 mM; glucose, 27 mM; Na3-citrate, 0.3 mM; L-glutamine, 15 mM; L-tryptophan, 0.244 mM; ferric citrate, 33.5 μM; MgSO4, 2 mM; MgCl2, 0.61 mM; CaCl2, 49.5 μM; FeCl3, 49.9 μM; MnCl2, 5.05 μM; ZnCl2, 12.4 μM; CuCl2, 2.52 μM; CoCl2, 2.5 μM; Na2MoO4, 2.48 μM. When methionine was used as sulfur source (1 mM), MgSO4 was replaced by MgCl2 at the same magnesium concentration (2 mM). For assaying growth on plates, either the MgSO4 containing medium or the sulfur-free basal medium was used (MgSO4 was replaced by MgCl2 as described above). In the latter case, 10 [μl of the sulfur source under investigation was applicated onto paper discs (MTR, 200 mM stock solution and methionine, 100 mM stock solution) deposited at the center of the plate, after bacteria had been uniformly spread at the surface of the plate, and growth was measured around the disK. In some cases MTR was used directly in the plate as sulfur source (0.2 mM). When necessary IPTG was included at 1 mM concentration. When xylose was added to the medium (0.5%) in order to trigger the expression of genes under the control of Pxyl inducible promoter, fructose was used as carbon source instead of glucose. LB and ED plates were prepared by addition of 17 g/liter Bacto agar or Agar Noble (Difco), respectively, to the medium. When included, antibiotics were added to the following concentrations: ampicillin, 100 mg/liter; chloramphenicol, 50 mg/liter; spectinomycin, 100 mg/liter; erythromycin plus lincomycin, 1 mg/liter and 25 mg/liter. Bacteria were grown at 37° C. The optical density (OD) of bacterial cultures was measured at 600 nm. MTR was prepared from MTA (Sigma, D5011) by acid hydrolysis as described by Schlenk. 3-fluoromethythiorybose (3F-MM, 5-thio-5-5-S-trifluoromethyl-D-ribose) was synthesised accordingly to [6, 20]. When added directly to the ED1 medium plate, 3F-MTR was used at 100 mg/liter concentration and when applicated onto paper discs 100 mM stock solution was used. For anaerobic growth on plates, the Anaerocult A (Merck) within an anaerobiosis jar for CO2 production with simultanious O2 absorbtion was used. Sulfur-free ED1 minimal medium plates were supplemented to 1% glucose final concentration and with 0.5% sodium pyruvate and 20 mM sodium nitrate as electron acceptor. Plates were incubated at 37° C. for 4 days with the sulfur source under investigation.

`CSC[C@@H](O)[C@@H](O)[C@@H](O)C=O` [MTR, methylthioribose] was tested, and the “Growth on MTR as sole sulfur source” value (Wild type strain 168, + O2, four days) was “normal growth after four days”, the “Growth on MTR as sole sulfur source” value (Wild type strain 168, anaerobic growth, nitrate as electron acceptor, four days (table row printed '+ O2')) was “failed to grow; also recorded: no growth after four days” and the “Use of MTR as the methionine source” value (methionine auxotrophs) was “can be used as the methionine source”. The “Growth on MTR as sole sulfur source” value (mtnK mutant, strain BFS1850) was “no growth; also recorded: failed to grow”, the “Growth on MTR as sole sulfur source” value (mtnS mutant, strain BSHP7010) was “no growth; also recorded: failed to grow” and the “Growth on MTR as sole sulfur source” value (mtnU mutant, strain BFS1851) was “failed to grow; also recorded: no growth (numerous revertants)”. The “Growth on MTR as sole sulfur source” value (mtnV mutant, strain BSHP7020) was “normal growth; also recorded: no visible effect on growth”, the “Growth on MTR” value (mtnW inactivated with a polar effect on the distal genes) was “lack of growth” and the “Growth on MTR as sole sulfur source” value (mtnW mutant, strain BSHP7014 (downstream genes expressed)) was “no growth; also recorded: failed to grow”. For the same molecule, the “Growth on MTR as sole sulfur source” value (mtnX mutant, strain BFS1852, IPTG added) was “normal growth; also recorded: recovered its growth properties”, the “Growth on MTR as sole sulfur source” value (mtnY mutant, strain BSHP7016) was “no growth; also recorded: failed to grow” and the “Growth on MTR as sole sulfur source” value (mtnZ mutant, strain BFS1853) was “partial growth; also recorded: very weak (residual) growth; also recorded: very weak, residual growth; also recorded: weak residual growth”.
